Entries after “also recorded” stand apart in the source; their conditions may differ.
Experiments:
[1] = test system: Balb c mice
Description: Balb c mice were injected intravenously with 200 nmol/mouse of the free 1v270 compound, the Cationic PEG 1v270 Lip formulation and the Cationic 1v270 Lip formulation. […] The AUC values calculated for each cytokine were used to determine I) the Toxicity Prediction with the IL-6/IFNα and IL-6/IL-12p70 ratios, and J) the immunogenicity score by the IFNα/IL-10 and IL-12p70/IL-10 ratios shown in arbitrary units. (n=5 mice/group, Students T-test was used, *p<0.05, **p<0.01, *** p<0.005, ns=non significant, error bars show SE).

[2] = test system: whole blood from healthy human donors; assay: Cytokine secretion in ex vivo human whole blood (ELISA, 24 h); assay type: cell-based; conditions: 24 h incubation
Description: Induction of cytokines from whole blood after treatment and incubation for 24 h. For all figures statistical analyses was made using students T-test, *p<0.05, **p<0.01, ***p<0.005, n=8-10. Test samples were the free TLR7 agonist 1v270 (1v270), the PEGylated cationic formulation with the immune stimulating 1v270 TLR7 agonist (Cationic PEG 1v270 Lip), a non-targeting neutral PEGylated liposome with 1v270 TLR7 agonist (Neutral PEG 1v270 Lip) and a non-PEGylated cationic formulation with 1v270 (Cationic 1v270 Lip). Composition and properties can be seen in Table 1. RPMI is control sample only with addition of media and DMSO is a vehicle control as solvent for 1v270.
For targeting a liposome to monocytes and antigen presenting cells (APCs) for use in cancer immunotherapy, it is key to boost an appropriate immune response. To analyze this we examined the ability of TLR7 agonist containing liposomes to induce cytokine secretion after targeting as shown in FIG. 2 and example 4, after another 24 h incubation. […]
To determine the optimal content of 1v270 in cationic PEGylated liposomes, liposomes were prepared with 0, 1, 2.5, 5 and 7.5% 1v270 content. […] The liposomes were incubated as described in example 5 and cytokine secretion of anti-tumor cytokines IL-12p70 and IFNα was measured.

`CCCCCCCC/C=C\CCCCCCCC(=O)OCC(COP(=O)(O)OCCNC(=O)c1ccc(Cn2c(=O)[nH]c3c(N)nc(OCCOC)nc32)cc1)OC(=O)CCCCCCC/C=C\CCCCCCCC` (stereo not shown) [1v270, 2-(4-((6-amino-2-(2-methoxyethoxy)-8-oxo-7H-purin-9(8H)-yl)methyl)benzamido)ethyl 2,3-bis(oleoyloxy)propyl phosphate] was tested, and the “higher toxicity prediction than the cationic PEG 1v270 Lip” value ([1]; AUC ratios, FIG. 4I, ratio not given) was 8 fold, the “induction of IFNα in mouse plasma” value ([1]; iv, 200 nmol/mouse, 2, 6 and 24 h) was “unable to induce IFNα at all; also recorded: no IFNα was measured” and the “secretion of IL-6” value ([2]; FIG. 3C) was “highest; also recorded: most potent”. For the same compound, the “secretion of IL-10” value ([2]; FIG. 3D) was “significantly higher levels”.
